This is an account of results in patent US20020194634A1, “Insect control system” (priority 1999, published 2002).

The conditions of data set [1]: budworm larvae, within 2 hours of a topical acephate application; cited from earlier work.
The test system of data set [2] is tobacco budworm Heliothis virescens. Particulars: cited from earlier work.
For data set [3], the system named is acetylcholinesterase (AchE). Particulars: cited from earlier work.
Data set [4] has as its system human colorectal carcinoma cells transfected with a construct expressing bacterial CD. To be noted: CD-transfected vs untransfected colorectal carcinoma cells; cited from earlier work.
In data set [5] the test system is transgenic Medfly (C. capitata) carrying the cytosine deaminase transgene. Description: 5-FC susceptibility of transgenic Medfly expressing cytosine deaminase. It counts as in vivo, Ceratitis capitata. On the procedure: Using standard methods, a genetic construct is prepared bearing the C. capitata VG1 promoter operably linked to a cDNA encoding E. coli cytosine deaminase. The cytosine deaminase gene, when introduced into insect cells, confers sensitivity to the pro-drug 5-FC.
The construct is inserted into the Minos transposon using conventional techniques and, in addition, those described in U.S. Pat. No. 5,840,865. The modified transposon is then used to transform Medfly according to standard transgenesis procedures.
Transgenic flies carrying the modified transposon are bred to create transgenic strains that express the cytosine deaminase enzyme. […] Moreover, cytosine deaminase expression is correlated with susceptibility to the pro-drug 5-FC administered in food to the flies.
A highly susceptible strain is bred and male flies isolated. Introduction of male flies into a population of non-transgenic flies results in rapid transfer of the transgene. Female flies which are born inheriting the transgene are susceptible to 5-FC, whilst male files remain resistant.

The subject of another data set is CD transformed flies. The data set is described as follows: 5-FC feeding of CD transformed flies. It counts as in vivo, Drosophila melanogaster. Particulars: female CD flies compared with male CD flies, 5-FC in food. On the procedure: The effect of the pro-drug 5-FC on CD transformed flies was determined by raising the flies on food containing various concentrations of 5-FC.

Data set [6] deals with non-transformed adult flies. Description: 5-FC feeding of non-transformed adult flies. Particulars: 5-FC in food. It counts as in vivo, Drosophila melanogaster. On the procedure:
(§1) To evaluate the effects of 5-FU on a D. melanogaster yw strain, flies were raised first on medium containing 5-FU. Groups of 25 flies were cultured on food containing various concentrations of the drug. Four vials of each concentration of the drug were used for each experiment and three experiments were performed. The surviving flies per vial were counted over a period of time. […] No eggs were laid on food containing more than 20 mM of 5-FU.
The effects of the pro-drug 5-FC on non-transformed adult flies were determined in a similar way.

The test system of data set [7] is adult boll weevil Anthonomus granids Boheman. To be noted: cited from earlier work.
The next data set concerns housefly. To be noted: cited from earlier work.
The subject of data set [8] is nicotinergic acetylcholine receptor (nAcR). To be noted: methyl group at the 3 position of the imidazole ring; cited from earlier work.
For data set [9], the system named is D. melanogaster (strain yw). The data set is described as follows: 5-FU feeding toxicity in D. melanogaster yw strain. It counts as in vivo, Drosophila melanogaster. Particulars: 5-FU in food. On the procedure: FIG. 5. Sensitivity of D. melanogaster (strain yw) to 5-FU. The yw strain is used routinely as recipient for generation of transgenic lines. Flies were reared in stadard Drosophila food supplemented with 5-FU at the indicated concentrations of 0 mM, 5 mM, 10 mM, 20 mM, 30 mM, 50 mM 5-FU. The x-axis represents time in days and the y-axis represents the number of flies. The data points represent the number of surviving flies.
FIG. 6. Dose-dependent lethality of D. melanogaster to 5-FU. The x-axis represents 5-FU concentration in mM and the y-axis represents the number of flies. Strain yw flies that were used in the above described transformation experiment were reared in standard Drosophila food supplemented with 5-FU at the indicated concentrations and viable flies were determined after 9 days. Each data point represents the mean±standard deviation of three separate experiments, each with 100 flies.
as §1

For `COP(=O)(NC(C)=O)SC` (stereo not drawn) [Acephate, O, S-dimethyl acetylphosphoramidothicate], the “methamidophos formed from acephate” value in data set [1] was “small amount”. Moreover, in data set [2], the “activity of acephate versus methamidophos” value was “comparable activity”. The “AchE inhibition (in words)” value in data set [3] is “not an AchE inhibitor”.
Regarding `Nc1nc(=O)[nH]cc1F` [5-FC, 5-fluorocytosine], the “fold more sensitive to 5-FC than untransfected cells” value in data set [4] is given as “about 600 fold”. Besides, the “susceptibility to 5-FC” value in data set [5] (female Medflies inheriting the transgene) was “susceptible”; in data set [5] (male Medflies carrying the transgene), “resistant”. In addition, the “viability with increasing 5-FC” value with CD transformed flies is “substantial reduction in viability”. The “reduction in fly viability” value in [6] is listed as “substantially no reduction”.
As for `COP(N)(=O)SC` (stereo not drawn) [methamidophos, O, S-dimethyl phosphoramidothicate], the “activity of acephate versus methamidophos” value in data set [2] is recorded as “comparable activity”. The “AchE inhibition (in words)” value in [3] is given as “potent”. The “fold more toxic than acephate” value in data set [7] was 75 fold.
Regarding `CN1CCN(Cc2ccc(Cl)nc2)C1=N[N+](=O)[O-]` [N-Me-imidacloprid], the “potency relative to imidacloprid” value with housefly is recorded as “as potent as imidacloprid”. In addition, the “decrease in binding affinity to nAcR relative to imidacloprid” value in data set [8] is given as 100 fold.
Regarding `O=c1[nH]cc(F)c(=O)[nH]1` [5-FU, 5-fluorouracil], the “concentration in food above which no eggs were laid” value in data set [9] is given as “more than 20 mM”. The “concentration range causing efficient killing of flies” value in [9] (within 9 days) fell in the range of 30 to 50 mM.
